Counter-ions that a name gives are not always drawn. Like-named read-outs stand apart in the source and are kept apart here.
Assays:
[1] = biological target: T1, human serotonin transporter (hSERT) (Homo sapiens, UniProt P31645); assay: hSERT receptor binding ([125I]-RTI-55 displacement, membranes of transfected HEK-293 cells); details: HEK-293 membranes, Ki from IC50 by Cheng-Prusoff, read-out: SERT Ki
T1 construct: expressed in transfected cells; host or cells: HEK-293 cells (membrane preparation)
Outline: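 Membranes from HEK-293 cells expressing human SERT were incubated 90 min at room temperature in Krebs-HEPES (pH 7.4) with 50 pM [125I]-RTI-55 and compound (10^-12 to 10^-5 M), in duplicate. Nonspecific binding was defined with 10 μM citalopram. Ki from IC50 by Cheng-Prusoff.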

[2] = biological target: T2, human norepinephrine transporter (hNET) (Homo sapiens, UniProt P23975); assay: hNET receptor binding ([125I]-RTI-55 displacement, membranes of transfected HEK-293 cells); details: HEK-293 membranes, Ki from IC50 by Cheng-Prusoff, read-out: NET Ki
T2 construct: expressed in transfected cells; host or cells: HEK-293 cells (membrane preparation)
Outline: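 Membranes from HEK-293 cells expressing human NET were incubated 90 min at room temperature with 50 pM [125I]-RTI-55 and compound (10^−5 to 10^−12 M) in Krebs-HEPES buffer, pH 7.4. Bound radioligand was counted after filtration, with nonspecific binding defined by 10 μM desipramine. IC50 was converted to Ki by Cheng-Prusoff.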

[3] = system: capsaicin-induced mechanical allodynia; assay: Rat model of capsaicin-induced mechanical allodynia (paw withdrawal threshold, Von Frey); assay type: in vivo; details: for inhibition in vivo at 10 mg/kg: Rattus norvegicus, po, 2 h, read-out: % inhibition +/− SEM
Description: In certain embodiments, the compounds of formula I may be assayed for their ability to alleviate capsaicin-induced mechanical allodynia in a rat (e.g., Sluka, K A, (2002) J of Neuroscience, 22(13): 5687-5693). For example, a rat model of capsaicin-induced mechanical allodynia) can be carried out as follows:
On day 0, male Sprague-Dawley rats (˜150 g) in the dark cycle are placed in suspended wire-bottom cages and allowed to acclimate for 0.5 h in a darkened, quiet room. The day 0 paw withdrawal threshold (PWT) is determined on the left hind paw by Von Frey hair assessment using the Dixon up and down method. After assessment, the plantar muscle of the right hind paw is injected with 100 μl capsaicin (0.25% in 10% ethanol, 10% Tween 80, in sterile saline). On day 6 the PWT of the left hindpaw (contralateral from injection site) is determined for each animal. Animals from the day 6 prereads with PWT≦11.7 g are considered allodynic responders and are regrouped so that each cage had similar mean PWT values. On day 7, responders are dosed (e.g., orally, intraperitoneally, and subcutaneously, etc.) with 10 ml/kg vehicle (0.5% HPMC(hydroxy-propylmethylcellulose)/0.2% Tween™ 80), or vehicle plus compound. The contralateral PWT values are determined at 2 hours (or at about the time corresponding to the estimated Cmax) after the single dose, with the investigator blinded to the dosing scheme. Those of skill in the art can determine the appropriate time to determine the contralateral PWT value (e.g., 1 hour, 2 hours, etc.).
For each animal, the day 6 PWT value is subtracted from the 2 hour PWT value to give a delta PWT value that represents the change in PWT due to the 2 hour drug treatment. In addition, the day 6 PWT is subtracted from the day 0 PWT to give the baseline window of allodynia present in each animal. To determine % inhibition of allodynia of each animal normalized for vehicle controls, the following formula is used: % Inhibition of Allodynia=100×(Delta PWT(drug)−mean Delta PWT(vehicle))/(Baseline−mean Delta PWT(vehicle)). Pharmaceutically Acceptable Salts and Solvates
Compounds of the present invention may be assayed for their ability to alleviate capsaicin-induced mechanical allodynia in a rat model (e.g., Sluka (2002) J of Neuroscience, 22(13)5687-5693). For example, a rat model of capsaicin-induced mechanical allodynia was carried out as follows:
On day 0, male Sprague-Dawley rats (˜150 g) in the dark cycle were placed in suspended wire-bottom cages and allowed to acclimate for 0.5 hour in a darkened, quiet room. The day 0 paw withdrawal threshold (PWT) was determined on the left hind paw by Von Frey hair assessment using the Dixon up and down method. After assessment, the plantar muscle of the right hind paw was injected with 100 μl capsaicin (0.25% (w/v) in 10% ethanol, 10% Tween 80, in sterile saline). On day 6 the PWT of the left hindpaw (contralateral from injection site) was determined for each animal. Animals from the day 6 prereads with PWT≦11.7 g were considered allodynic responders and were regrouped so that each cage had similar mean PWT values.
On day 7, responders were dosed subcutaneously with 30 mg of the compound of Example 7/kg body weight, 10 mg of the compound of the compound of Example 48/kg body weight, or with vehicle alone. The vehicle was phosphate buffered saline containing 2% Cremophor®) EL (BASF).
For the animals dosed with the compound of Example 7, the contralateral PWT values were determined at 2 hour after the single dose, with the investigator blinded to the dosing scheme.
For each animal, the day 6 PWT value was subtracted from the 2 hour PWT value for the 10 mg/kg doses to give a delta PWT value that represents the change in PWT due to the […] drug treatment. In addition, the day 6 PWT was subtracted from the day 0 PWT to give the baseline window of allodynia present in each animal. […]

[4] = male Sprague-Dawley rats, oral single dose 10 mg/kg, contralateral PWT at 2 hours after dose, mean of eight animals

T1 sequence (P31645 whole entry): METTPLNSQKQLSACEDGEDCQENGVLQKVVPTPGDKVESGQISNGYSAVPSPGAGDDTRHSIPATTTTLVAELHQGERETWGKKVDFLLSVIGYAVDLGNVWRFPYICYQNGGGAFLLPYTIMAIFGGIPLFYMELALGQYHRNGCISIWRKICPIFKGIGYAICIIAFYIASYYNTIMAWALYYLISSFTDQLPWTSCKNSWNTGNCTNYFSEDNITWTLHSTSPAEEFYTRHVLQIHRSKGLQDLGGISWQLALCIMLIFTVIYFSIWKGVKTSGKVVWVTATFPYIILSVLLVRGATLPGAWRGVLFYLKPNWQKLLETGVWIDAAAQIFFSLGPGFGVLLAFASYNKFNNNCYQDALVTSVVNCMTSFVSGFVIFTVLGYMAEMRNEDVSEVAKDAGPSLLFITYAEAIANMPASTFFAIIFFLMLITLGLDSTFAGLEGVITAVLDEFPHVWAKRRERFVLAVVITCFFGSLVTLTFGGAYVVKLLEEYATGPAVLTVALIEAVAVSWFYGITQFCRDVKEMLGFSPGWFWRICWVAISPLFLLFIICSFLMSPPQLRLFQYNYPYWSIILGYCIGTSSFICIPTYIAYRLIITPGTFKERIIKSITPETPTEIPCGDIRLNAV
T2 sequence (P23975 whole entry): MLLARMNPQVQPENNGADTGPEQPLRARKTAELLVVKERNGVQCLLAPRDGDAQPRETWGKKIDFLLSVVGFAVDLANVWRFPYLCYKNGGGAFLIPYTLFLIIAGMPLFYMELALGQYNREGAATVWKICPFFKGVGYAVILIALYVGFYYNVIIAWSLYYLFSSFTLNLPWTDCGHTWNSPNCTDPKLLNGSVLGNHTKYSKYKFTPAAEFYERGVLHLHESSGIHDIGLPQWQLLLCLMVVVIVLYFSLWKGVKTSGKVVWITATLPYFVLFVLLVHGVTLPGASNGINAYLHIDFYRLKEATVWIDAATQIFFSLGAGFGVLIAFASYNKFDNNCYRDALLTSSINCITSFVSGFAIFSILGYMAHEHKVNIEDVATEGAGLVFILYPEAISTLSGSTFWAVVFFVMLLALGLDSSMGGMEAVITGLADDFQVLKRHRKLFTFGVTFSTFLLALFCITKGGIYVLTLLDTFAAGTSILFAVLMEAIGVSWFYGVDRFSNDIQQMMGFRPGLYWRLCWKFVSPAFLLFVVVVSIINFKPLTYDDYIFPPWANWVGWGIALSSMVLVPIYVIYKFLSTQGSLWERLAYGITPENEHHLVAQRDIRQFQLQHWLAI

Row | Ki [1] [nM] | Ki [2] [nM] | Structure (SMILES) | inhibition in vivo at 10 mg/kg [3, 4] [%] | inhibition in vivo at 10 mg/kg [3] [%] | % Inhibition of Allodynia +/− SEM ([3]; male Sprague-Dawley rats, subcutaneous single dose 30 mg/kg, contralateral PWT at 2 hour after dose, mean of eight animals) | % Inhibition of Allodynia +/− SEM ([3]; male Sprague-Dawley rats, subcutaneous single dose 10 mg/kg, contralateral PWT at 1 hour after dose, mean of eight animals) [% +/− 14.8]
1 | 134 | 6.58 | Fc1ccc(F)c(-n2nc(OCC3CCCNC3)c3ccccc32)c1 (racemic) [Example 31, (±)-1-(2,5-Difluoro-phenyl)-3-(piperidin-3-ylmethoxy)-1H-indazole hydrochloride] | 47 | – | – | –
2 | 52.2 | 18.1 | Fc1ccc2c(c1)c(OCC1CCCNC1)nn2-c1ccccc1F (racemic) [Example 57, (±)-5-Fluoro-1-(2-fluoro-phenyl)-3-(piperidin-3-ylmethoxy)-1H-indazole hydrochloride] | 26 | – | – | –
3 | 54.7 | 5.3 | Cl.Fc1ccccc1-n1nc(OC[C@H]2CCNC2)c2ccccc21 [Example 7, (S)-(−)-1-(2-Fluorophenyl)-3-(pyrrolidin-3-ylmethoxy)-1H-indazole hydrochloride] | 12.2 | – | 71.5 +/− 4.6% | –
4 | 39 | 5.19 | Fc1ccc(-n2nc(OC[C@H]3CCNC3)c3ccccc32)c(F)c1 [Example 8, (S)-1-(2,4-Difluoro-phenyl)-3-(pyrrolidin-3-ylmethoxy)-1H-indazole hydrochloride] | 11.5 | – | – | –
5 | 81.6 | 5.63 | Fc1ccc(-n2nc(OC[C@@H]3CCNC3)c3ccccc32)c(F)c1 [Example 9, (R)-1-(2,4-Difluoro-phenyl)-3-(pyrrolidin-3-ylmethoxy)-1H-indazole hydrochloride] | 34.1 | – | – | –
6 | 100 | 13.1 | c1ccc(-n2nc(OC[C@@H]3CCNC3)c3ccccc32)cc1 [Example 14, (R)-1-Phenyl-3-(pyrrolidin-3-ylmethoxy)-1H-indazole hydrochloride] | 30.8 | – | – | –
7 | 122 | 20.2 | c1ccc(-n2nc(OC3CCNCC3)c3ccccc32)cc1 [Example 20, 1-Phenyl-3-(piperidin-4-yloxy)-1H-indazole hydrochloride] | 41.1 | – | – | –
8 | 42.3 | 6.34 | Fc1ccc(F)c(-n2nc(OC3CCNCC3)c3ccccc32)c1 [Example 27, 1-(2,5-Difluoro-phenyl)-3-(piperidin-4-yloxy)-1H-indazole hydrochloride] | 27 | – | – | –
9 | 64.6 | 4.44 | Fc1ccc(F)c(-n2nc(OC[C@@H]3CCNC3)c3ccccc32)c1 [Example 30, (R)-1-(2,5-Difluoro-phenyl)-3-(pyrrolidin-3-ylmethoxy)-1H-indazole hydrochloride] | 68 | – | – | –
10 | 33.6 | 3.41 | Fc1ccc(F)c(-n2nc(OC[C@H]3CCNC3)c3ccccc32)c1 [Example 32, (S)-1-(2,5-Difluoro-phenyl)-3-(pyrrolidin-3-ylmethoxy)-1H-indazole hydrochloride] | 60.7 | – | – | –
11 | 81 | 25.9 | Fc1ccc(-n2nc(OC3CCNCC3)c3ccccc32)cc1 [Example 42, 1-(4-Fluoro-phenyl)-3-(piperidin-4-yloxy)-1H-indazole hydrochloride] | 31.7 | – | – | –
12 | 138 | 17.9 | Fc1cccc(-n2nc(OC3CCNCC3)c3ccccc32)c1 [Example 43, 1-(3-Fluoro-phenyl)-3-(piperidin-4-yloxy)-1H-indazole hydrochloride] | 55.4 | – | – | –
13 | 47.5 | 3.2 | Fc1ccc2c(c1)c(OC[C@H]1CCCNC1)nn2-c1ccccc1F [Example 45, (S)-(−)-5-Fluoro-1-(2-fluorophenyl)-3-(piperidin-3-ylmethoxy)-1H-indazole maleate] | 46.2 | – | – | –
14 | 298 | 10.2 | Fc1ccc(-n2nc(OC[C@@H]3CNCCO3)c3cc(F)ccc32)c(F)c1.O=C(O)/C=C\C(=O)O [Example 48, (S)-(+)-1-(2,4-Difluorophenyl)-5-fluoro-3-(morpholin-2-ylmethoxy)-1H-indazole maleate] | – | – | – | 74.9
15 | 53.7 | 11.9 | Fc1ccc2c(c1)c(OC1CCNCC1)nn2-c1ccccc1F [Example 51, 5-Fluoro-1-(2-fluoro-phenyl)-3-(piperidin-4-yloxy)-1H-indazole hydrochloride] | 26 | – | – | –
16 | 9.99 | 6.13 | Fc1ccc(-n2nc(OC3CCNCC3)c3cc(F)ccc32)c(F)c1 [Example 56, 1-(2,4-Difluoro-phenyl)-5-fluoro-3-(piperidin-4-yloxy)-1H-indazole hydrochloride] | 11 | – | – | –
17 | 102 | 4.63 | Fc1ccccc1-n1nc(OC2CCNCC2)c2c(F)cccc21 [Example 100, 4-Fluoro-1-(2-fluoro-phenyl)-3-(piperidin-4-yloxy)-1H-indazole hydrochloride] | 8.7 | – | – | –

Row | Structure (SMILES) | Ki [1] [nM] | Ki [2] [nM] | inhibition in vivo at 10 mg/kg [3, 4] [%] | inhibition in vivo at 10 mg/kg [3] [%] | % Inhibition of Allodynia +/− SEM ([3]; male Sprague-Dawley rats, subcutaneous single dose 30 mg/kg, contralateral PWT at 2 hour after dose, mean of eight animals) | % Inhibition of Allodynia +/− SEM ([3]; male Sprague-Dawley rats, subcutaneous single dose 10 mg/kg, contralateral PWT at 1 hour after dose, mean of eight animals) [% +/− 14.8]
18 | Fc1ccccc1-n1nc(OC2CCNCC2)c2ccccc21 [Example 1, 1-(2-Fluorophenyl)-3-(piperidin-4-yloxy)-1H-indazole hydrochloride] | 51.1 | 3.14 | – | 67.7 | – | –

Reference: US7423054B2, “Therapeutic pyrazolo[3,4-b]pyridines and indazoles” (Warner Lambert Company LLC, priority 2004, dated 2008)
